The results in this text go back to patent US11970474B2, “Substituted benzodiazoles and use thereof in therapy” (THOMAS HELLEDAYS STIFTELSE FÖR MEDICINSK FORSKNING, priority 2018, dated 2024).

The subject of experiment [1] is BALB/c mice. In words: Recruitment of neutrophils to mouse airways. It counts as in vivo. The following applies: 25 mg/kg intraperitoneally; intranasal TNFα or lipopolysaccharide; lungs lavaged after 16 h. The method, then: Six- to 8-wk-old BALB/c mice (˜20 g; Harlan Sprague Dawley, San Diego, CA) were injected 25 mg/kg intraperitoneally 3 h before and at the time of intranasal TNF-α challenge essentially as described in Ba, Xueqing, et al., The Journal of Immunology, 192(5), 2384-94 (2014). To evaluate inflammation, bronchoalveolar lavage fluids (BALF) were collected 16 h after challenge, processed, cytospin slides were stained with Wright-Giemsa, and the number of neutrophils was counted. All experiments were performed according to the National Institutes of Health Guidelines for the Care and Use of Laboratory Animals.

Experiment [2] deals with MLE-12 cells. Put plainly: Pro-inflammatory gene regulation induced by TNFα. The experiment is classed as cell-based, mouse. The following applies: 20 ng/ml TNFα, 5 μM compound. The method, then: MLE-12 cells are maintained in suitable medium and treated with vehicle or 5 μM experimental compound for 48 h before stimulation with 20 ng/ml TNFα for 30 minutes. RNA is extracted and reverse-transcribed, followed by quantitative PCR evaluation of a panel of pro-inflammatory regulators (SABiosciences) essentially as described in Ba, Xueqing, et al., The Journal of Immunology, 192(5), 2384-94 (2014).

As to `O=C(Nc1ccc(I)cc1)N1CCC(n2c(=O)[nH]c3c(Br)cccc32)CC1` [Example 13, 4-(4-Bromo-2-oxo-2,3-dihydro-1H-1,3-benzodiazol-1-yl)-N-(4-iodophenyl)piperidine-1-carboxamide], in experiment [1], the “recruitment of neutrophils to mouse airways” value is reported as “reduces recruitment of neutrophils”. Moreover, the “pro-inflammatory gene regulation induced by the cytokine TNFα” value in experiment [2] is on record as “reduces pro-inflammatory gene regulation”.
